The results in this text go back to patent publication US20130317092A1 (priority 2007, published 2013).

One series has as its system AChE-S mRNA. Nature of the series: AChE-S mRNA by QRT-PCR in transfected primary human macrophages. The following applies: primary human macrophages transfected with LNA-modified oligo. It counts as cell-based. On the procedure:
(§1) Primary human macrophages obtained from donors using methods which are well known in the art.
(§2) anti132 is set forth in CG+ACC+ATG+GCT+GTA+GAC+TGT+TA (SEQ ID NO: 109), anti182 is set forth in 5′T+AgT+Tgg+CAA+gTC+TAg+AAC+CA3′(SEQ ID NO: 110), whereby LNA modification is marked as + before the modified nucleotide.
(§3) RT was performed using SuperScript III kit reagents (Invitrogen) as per kit instructions, and ABI-7900HT (Applied Biosystems) equipped with dedicated software (ver. 2) was used to amplify the resulting cDNA template (SYBR Green I RNA amplification kit, Roche). Triplicate values of each treatment were normalized to β-actin mRNA.

The subject of series [1] is Inducible Nitric Oxide Synthetase (iNOS). Briefly: iNOS by QRT-PCR in transfected primary human macrophages. It counts as cell-based. The following applies: primary human macrophages transfected with LNA-modified oligo. The protocol:
as §1, §3

The next series relates to RAW 264.7 cells. Nature of the series: NO production of LPS-challenged RAW 264.7 cells transfected with miR mimics. It counts as cell-based, murine. On the procedure: Murine RAW 264.7 macrophage-derived cell line known to express TLR4 and respond to endotoxin by production of pro-inflammatory mediators such as Nitric Oxide (NO), prostaglandins, and cytokines as ILE IL6, and TNFalpha were used (described in the preceding examples e.g., Examples 7 and 8). Cells were grown in 5 ml flasks in a humidified atmosphere in Dulbecco's modified Eagle's medium (DMEM, Biological Industries) supplemented with 10% fetal calf serum (FCS) and 2 mM L-glutamine at 37° C., 5% CO2.
Griess method was used to determine NO2 levels in medium in which macrophages had been cultured. 100 μl of each sample+100 μl of Griess reagent (1% sulfanilamide/0.1% naphthylethylenediamine dihydrochloride/2.5% H3PO4)—were incubated 10-20 min at room temperature. Read absorbance at 546 nm in micro-ELISA reader.
miR 132 and 182* (SEQ ID NOs: 54 and 93, respectively) were LNA modified (products are designated with SEQ ID NOs. 107 and 108, respectively). A locked nucleic acid (LNA), often referred to as inaccessible RNA, is a modified RNA. Ribose moiety of LNA nucleotide is modified with an extra bridge connecting 2′ and 4′ carbons. The bridge “locks” the ribose in 3′-endo structural conformation, which is often found in A-form of DNA or RNA. LNA nucleotides can be mixed with DNA or RNA bases in the oligonucleotide whenever desired. The locked ribose conformation enhances base stacking and backbone pre-organization.
electroporation and lipofection were used for cell transfection.
Oligos containing LNA modifications on every third base (Table 4) were obtained from Sigma-Proligo. Transfection was performed with Lipofectamine 2000 (Invitrogen, Carlsbad, Calif.) using 3 μg of oligo per sample. Briefly, cells were brought to 80%-90% confluence at the time of transfection. For each transfection sample, 3 μg oligo were diluted in 1 ml of RPMI-1640 while the lipofectamine reagent was diluted in 1 ml of RPMI-1640. After 5 minutes the diluted oligo and lipofectamine were combined and incubated for 20 minutes. This was added to the cells within the 75 ml flask, containing 6 ml RPMI complete+GM-CSF ([…] final oligo concentration). […]
To determine cell viability 40 μl of thiazolyl blue tetrazolium bromide (MTT) reagent (Sigma) at 5 mg/ml was added per sample well, incubated for 30 minutes at 37° C. Medium was removed, 400 μl of DMSO was added per well and absorbance read at 550 nm Griess method was used to determine NO2 levels in conditioned medium from macrophage cultures. […] Absorbance was read at 546 nm in a micro-ELISA reader. TNF-α, IL-6 levels were measured by Enzyme-Linked Immunosorbent Assay (ELISA) according to manufacturer's procedures (R&D Systems kits, MTA00, M6000B, respectively). All absorbance results were normalized using standard curves. […]

In the next series the test system is AChE-R mRNA. Briefly: AChE-R mRNA by QRT-PCR in transfected primary human macrophages. It counts as cell-based. The conditions noted are these: primary human macrophages transfected with LNA-modified oligo. The protocol:
as §1, §2, §3

The subject of series [2] is 3′UTR fragment of human AChE cDNA. Briefly: Dot blot hybridization of LNA-modified oligos with PCR-amplified AChE 3′UTR. Type of series: binding. The following applies: 5′-32P-labeled LNA-modified oligos. The protocol:
The common AChE 3′-UTR sequence was obtained from AY750146 (all mRNA sequence beginning from stop codon). 3′-UTR of AChE was amplified by RT-PCR using Promega reagents and total RNA isolated with QIAGEN RNeasy kit from post-mortem human brain, with primers including XhoI, NotI restriction sites in 5′ and 3′ primer, respectively. Primer sequences used were: (5′): […], (3′) (SEQ ID NO: 111): […] (SEQ ID NO: 112). Annealing temperature of 57° C. was used. PCR product was purified with QIAGEN QiaQuick kit, size of fragment verified in agarose gel, spotted on a dry HyBond nylon membrane in 2 ul drops, cross-linked to the membrane using 1200 mJ UV burst, and baked for 1 hr at 80° C. Membrane was blocked for at least 2 hours in solution containing 50% deionized formamide, 5×SSPE, 0.5% SDS, 5×Denhardt's Solution at 50° C.; and hybridized o/night in same conditions with 5′-32P-labeled probes mimicking miRs wholly or with mismatches as indicated, washed 4 times at 37° C. in 3×SSPE, 5% SDS, 10×Denhardt's solution; once at 42° C. in 1×SSPE, 1% SDS; exposed over up to 3 days to a PhosphorImager (Molecular Dynamics/GE Healthcare) plate, and signal quantified using FujiFilm's ImageGauge 4 software.

The subject of another series is U937 cells. Nature of the series: Nitric oxide production (Griess) in U937 cells. The following applies: 24 h, 1 μg/ml LPS, 100 μM ACh. It counts as cell-based, human.
In the next series the test system is NFκB. Nature of the series: NFκB localisation by immunohistochemistry in mouse bone marrow macrophages. The following applies: LPS, LPS+ACh. It counts as cell-based.
For a further series, the system named is IL-6. Nature of the series: IL-6 production by peritoneal macrophages from FVB/N and TgR mice. Type of series: cell-based, mouse. The conditions noted are these: 100 μM ACh.
The next series has as its system IL-12. Briefly: IL-12 production by peritoneal macrophages from FVB/N and TgR mice. It counts as cell-based, mouse.
The next series has as its system TNFα. Briefly: TNFα production by peritoneal macrophages from FVB/N and TgR mice. Type of series: cell-based, mouse.
In another series the test system is IL-1β, TNFα. Briefly: IL-1β, TNFα production (ELISA) by bone marrow dendritic cells from FVB/N and TgR mice. It counts as cell-based, mouse. The following applies: TgR dendritic cells, LPS and ACh. (In general: ELISA stands for enzyme-linked immunosorbent assay.)

On to “anti-132: LNA-modified reverse-complementary oligo CG+ACC+ATG+GCT+GTA+GAC+TGT+TA (CGACCATGGCTGTAGACTGTTA; LNA at 3, 6, 9, 12, 15, 18, 21, other sugars and backbone not given here)”, for which, in the series on AChE-S mRNA, the “AChE-S mRNA levels” value is “increase in mRNA levels, albeit of the AChE-S variant alone”. The iNOS expression entry in series [1] is “up-regulation of Inducible Nitric Oxide Synthetase (iNOS)”.
In the case of “miR-132 mimic: LNA-modified oligo mimicking miR-132: TA+ACA+GTC+TAC+AGC+CAT+GGT+CG (TAACAGTCTACAGCCATGGTCG; LNA at 3, 6, 9, 12, 15, 18, 21, other sugars and backbone not given here)”, the “activation of macrophage cell lines by LPS (NO production) after transfection” value in the series on RAW 264.7 cells (LPS-exposed RAW-264.7 cells transfected with oligo (Example 13)) is “significantly attenuate the activation of macrophage cell lines by LPS”. Moreover, the “endotoxin response (NO production) after transfection” value in the series on RAW 264.7 cells (RAW 264.7 cells transfected or electroporated, then endotoxin challenge (Example 11)) is “significantly attenuate endotoxin response”. In the series with AChE-S mRNA, the “AChE-S mRNA levels” value is on record as “dramatic decline”. Further, the “AChE-R mRNA levels” value in the series on AChE-R mRNA is given as “dramatic decline”. Also, in series [2], the “binding to PCR-amplified AChE 3′UTR (dot blot signal)” value is “significant binding to 20 ng doses of PCR product”.
Consider `CC(=O)OCC[N+](C)(C)C.[Cl-]` [ACh, Acetylcholine chloride], for which the “nitric oxide (NO) levels” value in the series on U937 cells is “reduced NO levels, and blocked the LPS-induced increases”. Further, the “relocation of NFκB from the cytoplasm to the nucleus” value in the series on NFκB is given as “significantly attenuated this effect”. The “LPS-induced IL6 increase on co-administration of ACh” value with IL-6 is “prevented this increase”. Moreover, the “IL-12 levels on co-administration of ACh with LPS” value in the series with IL-12 (TgR macrophages) is listed as “elevated in TgR macrophages”; in the series with IL-12 (wild-type macrophages), “significantly lowered”. For the same compound, the “LPS-induced increase in TNFα on co-administration of ACh” value in the series with TNFα was “significantly attenuated the LPS-induced increase in TNFα”. Moreover, the “up-regulation of inflammatory cytokines with ACh” value with IL-1β, TNFα is given as “not ACh-preventable”.
